The subject of test [1] is CO2 responsive neurons. Conditions: […]; averaged across the top 2 responders of the 4 species; cited from earlier work.
The target of test [2] is T1, Or82a (Drosophila melanogaster, UniProt P82986).
T1 sequence (P82986 1-385): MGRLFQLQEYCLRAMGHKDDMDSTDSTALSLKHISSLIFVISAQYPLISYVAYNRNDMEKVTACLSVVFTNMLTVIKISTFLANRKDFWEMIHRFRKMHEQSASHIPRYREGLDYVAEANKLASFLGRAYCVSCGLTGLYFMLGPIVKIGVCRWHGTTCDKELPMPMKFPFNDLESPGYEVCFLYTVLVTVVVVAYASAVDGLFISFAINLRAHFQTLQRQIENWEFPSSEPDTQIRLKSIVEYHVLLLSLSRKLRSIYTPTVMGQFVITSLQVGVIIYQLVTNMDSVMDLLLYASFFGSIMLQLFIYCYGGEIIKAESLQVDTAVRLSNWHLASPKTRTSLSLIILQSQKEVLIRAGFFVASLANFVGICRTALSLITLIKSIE
T1 sequence (Q9VNB5 1-486 partner): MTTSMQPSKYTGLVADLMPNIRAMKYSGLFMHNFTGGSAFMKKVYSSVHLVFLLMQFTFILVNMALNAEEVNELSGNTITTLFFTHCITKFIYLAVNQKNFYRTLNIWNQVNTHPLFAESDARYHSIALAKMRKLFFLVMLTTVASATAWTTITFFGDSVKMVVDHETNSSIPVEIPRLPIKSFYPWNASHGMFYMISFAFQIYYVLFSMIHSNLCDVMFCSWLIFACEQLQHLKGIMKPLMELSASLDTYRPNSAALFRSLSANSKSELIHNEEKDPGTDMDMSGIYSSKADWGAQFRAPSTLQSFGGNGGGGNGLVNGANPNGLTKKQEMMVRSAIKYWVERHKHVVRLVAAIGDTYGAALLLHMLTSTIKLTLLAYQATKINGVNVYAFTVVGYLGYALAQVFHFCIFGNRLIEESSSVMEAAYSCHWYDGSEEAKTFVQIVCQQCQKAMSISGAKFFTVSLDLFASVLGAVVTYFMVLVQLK
The conditions noted are these: single strong ligand of the training set; cited from earlier work.

Test [3] addresses T2, Or59b, ab2A (Drosophila melanogaster, UniProt Q9W1P8).
T2 construct: The 9 Ors tested are expressed in well-defined olfactory receptor neurons (ORNs) housed within the large and small basiconic sensilla; from tissue; host or cells: D. melanogaster antenna, ab2A olfactory receptor neuron (in vivo recording)
T2 sequence (Q9W1P8 1-398): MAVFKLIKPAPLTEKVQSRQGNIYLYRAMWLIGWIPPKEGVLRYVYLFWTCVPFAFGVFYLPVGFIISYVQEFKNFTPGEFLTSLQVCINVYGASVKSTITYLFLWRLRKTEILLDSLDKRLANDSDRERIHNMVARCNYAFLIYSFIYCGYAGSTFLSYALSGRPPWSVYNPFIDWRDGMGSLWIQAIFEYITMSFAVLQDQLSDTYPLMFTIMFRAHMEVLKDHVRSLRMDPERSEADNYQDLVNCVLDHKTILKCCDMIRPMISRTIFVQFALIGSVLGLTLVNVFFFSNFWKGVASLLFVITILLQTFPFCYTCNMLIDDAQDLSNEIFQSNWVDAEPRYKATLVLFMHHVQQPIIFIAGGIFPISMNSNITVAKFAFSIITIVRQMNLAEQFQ
T2 sequence (Q9VNB5 1-486 partner): T1 sequence (Q9VNB5 1-486 partner)
The experiment in a line: single-sensillum electrophysiology. It is filed as in vivo. Conditions: odorant at 10^-2. Here is the method: (§1) The results of the in silico screen are provocative. However in order to verify whether these predictions were meaningful, functional evidence was obtained. In order to validate the success of the in silico predictions the responses of 9 Odor receptors using single-sensillum electrophysiology directly on the Drosophila melanogaster antenna were analyzed. For each Odor receptor several odorants were tested from the top 500 predicted hits. A sampling of ˜192 novel odorants were tested with ˜11-21 novel odorants tested for each receptor, which were scattered somewhat randomly within the top 500 predictions for each receptor, providing a relatively unbiased set of chemical structures.
(§2) To test identified compounds any number of biological assays can be used to measure ORN activity in the presence of a putative ligand/compounds. […] For the purpose of testing each of these volatile compounds the compounds were diluted to ˜10^−2 in paraffin oil or distilled water. The 9 Ors tested are expressed in well-defined olfactory receptor neurons (ORNs) housed within the large and small basiconic sensilla (ab1-ab7) on the antenna. A previously identified diagnostic panel of odorants was used to distinguish individual classes of sensilla (ab1-ab7) and therefore identified the sensilla that contained the target Or expressing ORN. […]

In test [4] the target is T3, Or98a, ab7A (Drosophila melanogaster, UniProt Q9VAZ3).
T3 construct: The 9 Ors tested are expressed in well-defined olfactory receptor neurons (ORNs) housed within the large and small basiconic sensilla; from tissue; host or cells: D. melanogaster antenna, ab7A olfactory receptor neuron (in vivo recording)
T3 sequence (Q9VAZ3 1-397): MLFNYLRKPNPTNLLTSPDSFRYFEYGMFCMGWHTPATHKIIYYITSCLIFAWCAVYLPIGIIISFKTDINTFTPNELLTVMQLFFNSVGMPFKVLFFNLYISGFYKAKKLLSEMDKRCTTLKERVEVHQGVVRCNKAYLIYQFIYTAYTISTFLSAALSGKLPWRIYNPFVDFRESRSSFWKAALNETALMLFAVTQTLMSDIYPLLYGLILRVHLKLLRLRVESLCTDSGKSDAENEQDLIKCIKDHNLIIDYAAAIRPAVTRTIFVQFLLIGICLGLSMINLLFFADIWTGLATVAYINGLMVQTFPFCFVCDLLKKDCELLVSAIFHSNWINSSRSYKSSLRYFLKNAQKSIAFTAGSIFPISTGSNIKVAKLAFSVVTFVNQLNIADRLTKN
T3 sequence (Q9VNB5 1-486 partner): T1 sequence (Q9VNB5 1-486 partner)
The experiment in a line: single-sensillum electrophysiology. It is filed as in vivo. The conditions noted are these: odorant at 10^-2. How it is done: as §1, §2

We go through three compounds from patent publication US9307763B2, “Ligands for odor receptors and olfactory neurons” (The Regents of the University of California, priority 2010, dated 2016).

Turning to `CC(=O)OC/C=C(\C)CCC=C(C)C` [geranyl acetate, reference compound], the “Final Activity” value in test [1] was 0. In test [2], the “activation of Or82a” value is given as “activated strongly”. Take `CC(=O)OC(C)C` [isopropyl acetate]: the “activation of odor receptor (firing rate)” value in test [3] was > 250 spikes/sec. Take `CC(=O)OCC=C(C)C` [prenyl acetate]: the “activation of odor receptor (firing rate)” value in test [4] is > 250 spikes/sec.
